Test results from patent publication US20150080380A1, “Therapeutic Uses” (GLAXOSMITHKLINE INTELLECTUAL PROPERTY DEVELOPMENT LIMITED, priority 2012, published 2015).

What was measured:
H3R = molecular target: T1, H3R (Rattus norvegicus, UniProt Q9QYN8); experiment: Histamine H3R functional inverse agonist assay with OPCs (cAMP assay); assay type: cell-based; conditions: 30 nM to 3 µM compound, Forskolin 3 µM, absence of H3R agonist
T1 construct: endogenous in cells; host or cells: oligodendrocyte precursor cells (OPCs), untransfected
T1 sequence (Q9QYN8 whole entry): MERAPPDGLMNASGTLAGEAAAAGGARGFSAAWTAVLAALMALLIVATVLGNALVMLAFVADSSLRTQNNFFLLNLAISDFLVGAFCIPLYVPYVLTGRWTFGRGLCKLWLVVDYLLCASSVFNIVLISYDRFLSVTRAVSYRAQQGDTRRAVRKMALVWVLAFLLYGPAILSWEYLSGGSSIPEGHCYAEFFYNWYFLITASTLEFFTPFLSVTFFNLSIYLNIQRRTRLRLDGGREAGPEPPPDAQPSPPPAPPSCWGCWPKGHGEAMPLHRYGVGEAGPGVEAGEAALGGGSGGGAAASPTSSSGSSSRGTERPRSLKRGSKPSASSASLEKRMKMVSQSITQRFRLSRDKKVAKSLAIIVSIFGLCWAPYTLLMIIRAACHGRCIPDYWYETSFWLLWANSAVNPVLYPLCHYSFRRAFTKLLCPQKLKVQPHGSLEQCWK
Description: Histamine receptor 3 (H3R), expressed on cell surface, is negatively coupled to adenylyl cyclase, which stimulates the formation of cyclic AMP (cAMP). In the absence of histamine, the constitutively active H3R would inhibit intracellular level of cAMP. Inverse agonists of H3R, which block constitutive activity of H3R, thus would raise the cAMP level. The ability of Example compound 2 to inhibit constitutive activity of H3R was determined in a cellular cAMP assay.
For each compound being assayed, OPCs were seeded in PO coated 96-well plate at a density of 20000 cells/well, and cultured in BDM with bFGF (10 ng/ml Petrotech) and PDGF (10 ng/ml Petrotech) for 24 hours. The cells were first treated with different concentration of example compound (30 nM to […]) for 30 minutes. Then the cells were stimulated with Forskolin ([…], Sigma) in the presence of the example compound for 15 minutes. The cAMP concentrations were measured by the cAMP Chemiluminescent Immunoassay Kit (Invitrogen, Cat. No. C10557). The cells were lysed with lysis buffer (60 μL, Invitrogen Kit reagent) at 37° C. for 30 minutes. […] Chemiluminescence signal was measured in a SpectraMax M5 Multi-Mode Microplate Readers (Molecular Devices) for 1 second per well.

[1] = tested on: remyelination in cuprizone-induced demyelination; experiment: Mouse cuprizone-induced demyelination model (Black-gold II staining); assay type: in vivo, C57BL/6 mice; conditions: forebrain and hindbrain; for myelin staining intensity of corpus callosum (percentage of mean density of naïve control): vehicle 15.75%; for demyelination area, corpus callosum: vehicle 54.81%
Description: The ability of the compound of Example 1 to enhance in vivo remyelination was determined with the mouse cuprizone-induced demyelination model.
The cuprizone model was conducted with the protocol as follows: the C57BL/6 mice at age of 8 weeks were fed with powder mouse food mixed freshly with 0.2% cuprizone (w/w) for 5 weeks to induce demyelination, then animals were allowed to recover (removal of cuprizone from the diet) and administrated with Example compound 1, at 0.3 mg/kg, 1 mg/kg, 3 mg/kg and 10 mg/kg body weight orally, b.i.d. for an additional 9 days prior to sacrifice. The brain samples were collected for assessment of myelination. The compound of Example 1 was formulated as a suspension using 1% aqueous methylcellulose as the vehicle.
Mice were deeply anesthetized and quickly perfused with 0.9% saline via the left cardiac ventricle to drain out blood. Whole brains were taken out and put into 15 ml tube with 4% paraformaldehyde (PFA) for post-fixation overnight, then soaked in 30% sucrose for 24-48 h to dehydrate. For frozen embedding, brains were immediately snap frozen in isopentane mixed with dry ice and then embedded in optimal cutting temperature solution (OCT). Whole brains were sectioned at coronal position from Bregma −2.46 mm to 1.18 mm according to mouse atlas by Paxinos and Franklin (The Mouse Brain in Stereotaxic Coordinates—3rd Edition) with cryostat (MICROM HM525) at a thickness of 30 μm. All sections were put into 96-well plate filled with anti-freezing solution [300 g sucrose dissolved in 500 ml 0.1 M PB solution (combine 11.505 g Na2HPO4 and 2.275 g NaH2PO4, dilute to 1 L with distilled water, adjust pH to 7.4) plus 300 ml Ethylene glycol and dilute to 1 L with distilled water]. For Black-gold II staining, 2 sections from forebrain around the bregma 0.86 mm and 2 sections from hindbrain around the bregma −1.58 mm for each mouse respectively were chosen according to mouse atlas by Paxinos and Franklin. Black-gold II staining for detection of myelination was performed according to a protocol adapted from the manufacturer (AG105, Millipore). Briefly, 2 free-floating sections from forebrain and 2 sections from hindbrain were rehydrated 2× in MilliQ water for 2 minutes each time and then stained in a 24-well plate with 0.3% Black-gold II solution at 60° C. for 20 minutes. The sections were monitored to determine the extent of staining. When the finest myelinated fibers were stained dark red to black, the staining process was stopped. The sections were then rinsed 2× in MilliQ water for 2 minutes each time. Then the sections were treated with Sodium thiosulfate solution (1%) for 6 minutes at 60° C. After rinsing in PBST (0.05% Triton X100 in PBS), sections were mounted on slides (Leica Microsystems Plus Slides) and further air-dried on 37° C. heating platform for 2-4 hours. The dehydrated slides were coverslipped with robotic coverslipper (CV5030, Leica). Stained slides were scanned by Scanscope (Aperio Technologies Inc.). Digital images of central corpus callosum or cortex close to cingulum were captured using ImageScope (Aperio Technologies Inc.) at the magnification of 20×.
Image-Pro 6.3 software (Media Cybernetics, Bethesda, Md. 20814 USA) was used for subsequent quantitative evaluation. Threshold was set to Black-gold II staining in each gated corpus callosum and held constant for images obtained at equal objectives and light intensities on slides that were processed. Two parameters were used here: area and IOD (Integrated Optical Density). For measurement of demyelination area, all digital images were set under the same colour range after converted to a greyscale value of 8. Demyelination area indicated by void of Black-gold staining and total area of central corpus callosum at 20× magnification were measured separately on each image. Mean demyelination area was calculated as: (demyelination area/total area of central corpus callosum)×100. […]

c1cc2c(cc1-c1noc(CC3CCN(C4CCC4)CC3)n1)OCO2 [Example compound 2, 3-(benzo[d][1,3]dioxol-5-yl)-5-((1-cyclobutylpiperidin-4-yl)methyl)-1,2,4-oxadiazole]
Forskolin-stimulated cAMP level in primary OPCs (H3R): increased

O=C1CCCN1c1ccc(Oc2ccc3c(c2)CCN(C2CCC2)CC3)nc1 [Example compound 1, 1-{6-[(3-cyclobutyl-2,3,4,5-tetrahydro-1H-3-benzazepin-7-yl)oxy]-3-pyridinyl}-2-pyrrolidinone]
myelin staining intensity of corpus callosum (percentage of mean density of naïve control) ([1]; 0.3 mg/kg orally b.i.d. 9 days): 18.61%±1.01%
demyelination area, corpus callosum ([1]; 0.3 mg/kg orally b.i.d. 9 days): 46.82%±3.54%
myelin staining intensity of corpus callosum (percentage of mean density of naïve control) ([1]; 1 mg/kg orally b.i.d. 9 days): 22.00%±3.41%
demyelination area, corpus callosum ([1]; 1 mg/kg orally b.i.d. 9 days): 38.45%±7.55%
myelin staining intensity of corpus callosum (percentage of mean density of naïve control) ([1]; 3 mg/kg orally b.i.d. 9 days): 28.32%±7.76%
demyelination area, corpus callosum ([1]; 3 mg/kg orally b.i.d. 9 days): 41.22%±11.14%
myelin staining intensity of corpus callosum (percentage of mean density of naïve control) ([1]; 10 mg/kg orally b.i.d. 9 days, P<0.05): 26.36%±3.10%
demyelination area, corpus callosum ([1]; 10 mg/kg orally b.i.d. 9 days, P<0.01): 27.62%±5.20%
